Source: patent US8293682B2, “Growth regulators for gramineous weeds” (Rikengreen Co., Ltd., priority 2008, dated 2012)

What was measured:
[1] = tested on: annual bluegrass (Poa annua L.); test: Test Example 1: number of ear emergence, poly-cup, single or mixed application; assay type: in vivo
Protocol: At the initial stage of the ear emergence of annual bluegrass (Poa annua L.) grown in a poly-cup of 11 cm×11 cm, benzyladenine (Beanine for painting; made by Rikengreen; containing 1% benzyladenine) and ethephon (Ethrel 10 soluble concentrate; Nissan Chemical Industries; containing 10% ethephon) respectively as a single active ingredient or a mixture of them were diluted in a predetermined amount of water and applied by atomization so as to be a dose as indicated in Table. The application was carried out using 100 mL/m^2 of the solution to which a spreader (Riken Sprayzer (registered trade mark); made by Rikengreen) was added so as to be 1/1,000 fold. Inspection was made on Days 21, 32 and 45 after treatment with the agents to count the number of ear emergence in the cup. After completion of each inspection, clipping was performed.

[2] = tested on: annual bluegrass (Poa annua L.); test: Test Example 3: number of emerged ears and leaves, poly-cup, two applications; assay type: in vivo; conditions: 2nd application after 29 days
Protocol: At the initial stage of the ear emergence of annual bluegrass (Poa annua L.) grown in a poly-cup of 11 cm×11 cm, benzyladenine (Beanine for painting; made by Rikengreen; containing 1% benzyladenine) and ethephon (Ethrel 10 soluble concentrate; Nissan Chemical Industries; containing 10% ethephon) were diluted in a predetermined amount of water, and a spreader (Riken Sprayzer (registered trade mark); made by Rikengreen) was added so as to be 1/1,000-fold concentration; the respectively diluted solutions were applied by atomization at a dose as indicated in Table (scattered solution: 200 mL/m^2), and after a lapse of 29 days, the 2nd application was carried out. Then, the number of emerged ears of annual bluegrass (Poa annua L.) in the cup was counted. Further, the number of leaves [Leaf] of annual bluegrass (Poa annua L.) was counted within the area of 6 cm×6 cm in the cup. The test was carried out serially. […] Dose means the amount at a single application.

[3] = tested on: annual bluegrass (Poa annua L.); test: Test Example 4: field test in bent green turf, emerged ear number; assay type: in vivo; conditions: applied Day 0 and after 30 days
Protocol: In a bent green turf where annual bluegrasses (Poa annua L.) were grown, a test zone of 1 m×1 m was provided. Benzyladenine (Beanine for painting; made by Rikengreen; containing 1% benzyladenine) and ethephon (Ethrel 10 soluble concentrate; Nissan Chemical Industries; containing 10% ethephon) were diluted in a predetermined amount of water, and a spreader (Riken Sprayzer (registered trade mark); made by Rikengreen) was added so as to be 1/1,000-fold concentration. The respectively diluted solutions were applied to each test zone at the first application (Day 0) at a dose as indicated in Table, and after a lapse of 30 days the second application was carried out. The amount of solution scattered was 100 mL/m^2 both in the first and second applications. The number of ear emergence of annual bluegrass (Poa annua L.) within the area of 10×10 cm was counted at regular intervals at 3 spots per zone. […] Dose means the amount at a single application.

[4] = tested on: southern crabgrasses (Digitaria ciliaris Koel.); test: Test Example 5: field test in Manilagrass turf, inhibitory effect for ear emergence; assay type: in vivo; conditions: Ethephon 50 mg a.i./m^2
Protocol: In a Manilagrass (Zoysia matrella) turf where southern crabgrasses (Digitaria ciliaris Koel.) were grown, a test zone of 1 m×1 m was provided. Benzyladenine (Beanine for painting; made by Rikengreen; containing 1% benzyladenine) and ethephon (Ethrel 10 soluble concentrate; Nissan Chemical Industries; containing 10% ethephon) were diluted in a predetermined amount of water. The respectively diluted solutions were applied to each test zone at the first application (Day 0) at a dose as indicated in Table, and after a lapse of 17 days the second application was carried out. The first application was conducted before the ear emergence of southern crabgrasses (Digitaria ciliaris Koel.). The amount of solution scattered was 150 mL/m^2 both in the first and second applications. The inhibitory effect for the ear emergence of southern crabgrasses (Digitaria ciliaris Koel.) within the area of 1 m×1 m was evaluated according to the standard as described in Table 7. […] The symbol “●” in Table 8 indicates the treatment with each agent, and “−” means untreated. Dose means the amount at a single application.

[5] = tested on: lawn grasses; conditions: Non-patent document 2; cited from earlier work
[6] = Day 46, Benzyladenine + Ethephon 0 + 20 mg a.i./m^2
[7] = Day 46, Benzyladenine + Ethephon 0 + 40 mg a.i./m^2
[8] = Day 46, Benzyladenine + Ethephon 0 + 80 mg a.i./m^2

## O=P(O)(O)CCCl [Ethephon, 2-chloroethylphosphonic acid]
[1]; 21 Days after Application, Benzyladenine 0, Ethephon 40 mg a.i./m^2
  number of ear emergence in the cup: 43
[1]; 21 Days after Application, Benzyladenine 0, Ethephon 80 mg a.i./m^2
  number of ear emergence in the cup: 47
[1]; 21 Days after Application, Benzyladenine 0, Ethephon 160 mg a.i./m^2
  number of ear emergence in the cup: 28
[1]; 21 Days after Application, Benzyladenine 0, Ethephon 240 mg a.i./m^2
  number of ear emergence in the cup: 29
[1]; 21 Days after Application, Benzyladenine 0, Ethephon 320 mg a.i./m^2
  number of ear emergence in the cup: 19
[1]; 32 Days after Application, Benzyladenine 0, Ethephon 40 mg a.i./m^2
  number of ear emergence in the cup: 38
[1]; 32 Days after Application, Benzyladenine 0, Ethephon 80 mg a.i./m^2
  number of ear emergence in the cup: 41
[1]; 32 Days after Application, Benzyladenine 0, Ethephon 160 mg a.i./m^2
  number of ear emergence in the cup: 32
[1]; 32 Days after Application, Benzyladenine 0, Ethephon 240 mg a.i./m^2
  number of ear emergence in the cup: 19
[1]; 32 Days after Application, Benzyladenine 0, Ethephon 320 mg a.i./m^2
  number of ear emergence in the cup: 15
[1]; 45 Days after Application, Benzyladenine 0, Ethephon 40 mg a.i./m^2
  number of ear emergence in the cup: 54
[1]; 45 Days after Application, Benzyladenine 0, Ethephon 80 mg a.i./m^2
  number of ear emergence in the cup: 51
[1]; 45 Days after Application, Benzyladenine 0, Ethephon 160 mg a.i./m^2
  number of ear emergence in the cup: 38
[1]; 45 Days after Application, Benzyladenine 0, Ethephon 240 mg a.i./m^2
  number of ear emergence in the cup: 39
[1]; 45 Days after Application, Benzyladenine 0, Ethephon 320 mg a.i./m^2
  number of ear emergence in the cup: 36
[2]; Day 23, Benzyladenine + Ethephon 0 + 20 mg a.i./m^2
  Ear (number of emerged ears in the cup): 30
[2]; Day 23, Benzyladenine + Ethephon 0 + 40 mg a.i./m^2
  Ear (number of emerged ears in the cup): 23
[2]; Day 23, Benzyladenine + Ethephon 0 + 80 mg a.i./m^2
  Ear (number of emerged ears in the cup): 13
[2]; [6]
  Ear (number of emerged ears in the cup): 34
  [Leaf] (number of leaves within 6 cm×6 cm): [90]
[2]; [7]
  Ear (number of emerged ears in the cup): 27
  [Leaf] (number of leaves within 6 cm×6 cm): [88]
[2]; [8]
  Ear (number of emerged ears in the cup): 29
  [Leaf] (number of leaves within 6 cm×6 cm): [79]
[2]; Day 53, Benzyladenine + Ethephon 0 + 20 mg a.i./m^2
  Ear (number of emerged ears in the cup): 34
[2]; Day 53, Benzyladenine + Ethephon 0 + 40 mg a.i./m^2
  Ear (number of emerged ears in the cup): 30
[2]; Day 53, Benzyladenine + Ethephon 0 + 80 mg a.i./m^2
  Ear (number of emerged ears in the cup): 41
[3]; Day 22, Ethephon 80, Benzyladenine 0 mg a.i./m^2
  Ear (mean emerged ear number within 10×10 cm): 53.7
[3]; Day 22, Ethephon 160, Benzyladenine 0 mg a.i./m^2
  Ear (mean emerged ear number within 10×10 cm): 25.0
[3]; Day 41, Ethephon 80, Benzyladenine 0 mg a.i./m^2
  Ear (mean emerged ear number within 10×10 cm): 57.3
[3]; Day 41, Ethephon 160, Benzyladenine 0 mg a.i./m^2
  Ear (mean emerged ear number within 10×10 cm): 24.3
[3]; Day 61, Ethephon 80, Benzyladenine 0 mg a.i./m^2
  Ear (mean emerged ear number within 10×10 cm): 68.7
[3]; Day 61, Ethephon 160, Benzyladenine 0 mg a.i./m^2
  Ear (mean emerged ear number within 10×10 cm): 59.0
[4]; Day 18, applied Day 0
  Evaluation: index of inhibitory effect for ear emergence: 2 (20% or more-less than 30%)
[4]; Day 26, applied Day 0
  Evaluation: index of inhibitory effect for ear emergence: 3 (30% or more-less than 40%)
[4]; Day 26, applied Day 0 and Day 17
  Evaluation: index of inhibitory effect for ear emergence: 4 (40% or more-less than 50%)
[4]; Day 33, applied Day 0
  Evaluation: index of inhibitory effect for ear emergence: 1 (10% or more-less than 20%)
[4]; Day 33, applied Day 0 and Day 17
  Evaluation: index of inhibitory effect for ear emergence: 5 (50% or more-less than 60%)
[4]; Day 41, applied Day 0
  Evaluation: index of inhibitory effect for ear emergence: 1 (10% or more-less than 20%)
[4]; Day 41, applied Day 0 and Day 17
  Evaluation: index of inhibitory effect for ear emergence: 2 (20% or more-less than 30%)
[5]
  extension of stolon and weight in lawn grasses: promotes the extension of stolon and increase of the weight in lawn grasses
